# Molecular target: Rhodopsin (Bos taurus) (UniProt P02699)
# Test: Agonist activity at bovine rhodopsin assessed as opsin mediated cognate G protein transducer activation by fluorescence assay
# Assay type: functional
# Parameters: concentration or dose not given beside the values
# Chain of Rhodopsin (Bos taurus) (P02699 whole entry): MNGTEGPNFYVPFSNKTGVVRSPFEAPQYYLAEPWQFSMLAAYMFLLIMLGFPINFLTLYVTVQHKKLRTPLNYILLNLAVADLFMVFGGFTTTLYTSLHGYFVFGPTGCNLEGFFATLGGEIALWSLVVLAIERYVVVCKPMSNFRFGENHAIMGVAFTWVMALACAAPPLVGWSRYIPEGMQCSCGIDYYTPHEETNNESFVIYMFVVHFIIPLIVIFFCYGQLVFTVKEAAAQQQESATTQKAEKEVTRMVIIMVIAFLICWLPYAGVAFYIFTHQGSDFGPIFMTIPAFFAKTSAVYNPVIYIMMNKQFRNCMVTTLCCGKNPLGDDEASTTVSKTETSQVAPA
row,SMILES,Activity
1,CC1=C(/C=C/C(C)=C/C=C\C(C)=C\C=O)C(C)(C)CCC1,100%
2,CC1=C(/C=C/C(C)=C\C=C\C(=C\C=O)C(C)C)C(C)(C)CCC1,139%
3,CC1=C(/C=C/C(=C/C=C\C(C)=C\C=O)C2CC2)C(C)(C)CCC1,83%
4,CC1=C(/C=C/C(C)=C\C=C\C(=C\C=O)C2CC2)C(C)(C)CCC1,53%
5,CC1=C(/C=C/C(=C\C=C\C(C)=C\C=O)C2CC2)C(C)(C)CCC1,60%
6,CC1=C(/C=C/C(C)=C\C=C\C(C)=C\C=O)C(C)(C)CCC1,104%
